Experimental data reported in the Kinase Knowledgebase extract (Sharma et al. 2016).

Assays:
Experiment in all cases: Enzyme Assay
PIK3CB (Human) = PIK3CB (Human) (UniProt P42338)
PIK3CD (Human) = PIK3CD (Human) (UniProt O00329)
PIK3CG (human) = PIK3CG (human) (UniProt P48736)
PIK3CG (human), sequence (P48736 whole entry, looked up): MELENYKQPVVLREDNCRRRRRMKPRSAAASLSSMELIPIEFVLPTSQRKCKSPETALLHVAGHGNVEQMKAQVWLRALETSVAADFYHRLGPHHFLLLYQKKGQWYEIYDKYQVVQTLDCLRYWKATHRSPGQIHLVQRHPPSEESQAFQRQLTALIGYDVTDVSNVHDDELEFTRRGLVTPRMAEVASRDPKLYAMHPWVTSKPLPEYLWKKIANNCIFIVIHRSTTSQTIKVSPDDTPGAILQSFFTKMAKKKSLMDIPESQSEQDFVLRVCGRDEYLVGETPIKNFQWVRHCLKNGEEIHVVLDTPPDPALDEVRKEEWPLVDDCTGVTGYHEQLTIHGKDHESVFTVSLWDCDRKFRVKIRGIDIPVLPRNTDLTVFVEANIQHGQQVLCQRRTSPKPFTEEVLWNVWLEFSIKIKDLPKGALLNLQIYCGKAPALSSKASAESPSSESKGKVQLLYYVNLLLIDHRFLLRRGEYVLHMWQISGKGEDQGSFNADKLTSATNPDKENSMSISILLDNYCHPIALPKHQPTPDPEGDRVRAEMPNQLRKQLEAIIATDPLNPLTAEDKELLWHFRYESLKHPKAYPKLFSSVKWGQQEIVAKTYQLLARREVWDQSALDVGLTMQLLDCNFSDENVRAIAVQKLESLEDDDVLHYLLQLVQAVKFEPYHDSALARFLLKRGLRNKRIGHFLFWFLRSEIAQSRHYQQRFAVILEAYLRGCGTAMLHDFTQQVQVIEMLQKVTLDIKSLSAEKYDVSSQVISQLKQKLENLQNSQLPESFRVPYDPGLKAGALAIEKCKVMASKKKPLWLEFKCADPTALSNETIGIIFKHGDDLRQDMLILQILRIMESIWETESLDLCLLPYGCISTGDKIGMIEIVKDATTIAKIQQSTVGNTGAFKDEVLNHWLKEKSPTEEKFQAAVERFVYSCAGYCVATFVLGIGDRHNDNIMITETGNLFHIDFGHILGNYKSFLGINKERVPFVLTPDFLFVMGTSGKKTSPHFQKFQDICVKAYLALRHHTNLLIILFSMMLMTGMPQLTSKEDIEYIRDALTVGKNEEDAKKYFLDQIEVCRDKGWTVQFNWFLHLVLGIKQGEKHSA

PIK3CD (Human), sequence (O00329 whole entry, looked up): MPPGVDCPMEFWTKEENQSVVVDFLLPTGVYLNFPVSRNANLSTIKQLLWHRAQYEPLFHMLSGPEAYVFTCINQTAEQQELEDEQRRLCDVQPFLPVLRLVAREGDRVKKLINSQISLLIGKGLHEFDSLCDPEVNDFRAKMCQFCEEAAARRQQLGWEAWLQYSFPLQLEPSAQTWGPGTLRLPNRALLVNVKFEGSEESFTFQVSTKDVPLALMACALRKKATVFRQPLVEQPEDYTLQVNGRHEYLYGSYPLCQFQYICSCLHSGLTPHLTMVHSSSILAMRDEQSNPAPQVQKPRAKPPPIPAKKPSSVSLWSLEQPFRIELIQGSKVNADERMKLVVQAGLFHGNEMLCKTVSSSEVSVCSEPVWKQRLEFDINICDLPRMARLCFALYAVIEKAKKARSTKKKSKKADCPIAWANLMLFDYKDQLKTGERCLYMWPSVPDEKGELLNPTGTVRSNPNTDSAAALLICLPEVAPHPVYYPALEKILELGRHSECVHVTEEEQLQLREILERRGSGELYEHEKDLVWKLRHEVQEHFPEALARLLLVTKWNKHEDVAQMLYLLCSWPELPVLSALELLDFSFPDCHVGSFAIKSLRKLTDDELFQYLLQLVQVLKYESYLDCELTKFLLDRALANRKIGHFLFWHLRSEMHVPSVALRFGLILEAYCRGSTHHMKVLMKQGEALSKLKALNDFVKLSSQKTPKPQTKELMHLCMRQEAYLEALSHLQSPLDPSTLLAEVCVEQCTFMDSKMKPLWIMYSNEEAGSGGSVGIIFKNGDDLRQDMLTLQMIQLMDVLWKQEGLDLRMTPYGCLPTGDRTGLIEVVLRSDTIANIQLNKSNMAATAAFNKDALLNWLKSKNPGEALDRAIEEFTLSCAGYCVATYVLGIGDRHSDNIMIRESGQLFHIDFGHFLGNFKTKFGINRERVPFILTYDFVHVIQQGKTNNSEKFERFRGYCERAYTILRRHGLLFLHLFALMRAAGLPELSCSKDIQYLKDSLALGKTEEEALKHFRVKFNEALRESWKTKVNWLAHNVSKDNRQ
PIK3CB (Human), sequence (P42338 whole entry, looked up): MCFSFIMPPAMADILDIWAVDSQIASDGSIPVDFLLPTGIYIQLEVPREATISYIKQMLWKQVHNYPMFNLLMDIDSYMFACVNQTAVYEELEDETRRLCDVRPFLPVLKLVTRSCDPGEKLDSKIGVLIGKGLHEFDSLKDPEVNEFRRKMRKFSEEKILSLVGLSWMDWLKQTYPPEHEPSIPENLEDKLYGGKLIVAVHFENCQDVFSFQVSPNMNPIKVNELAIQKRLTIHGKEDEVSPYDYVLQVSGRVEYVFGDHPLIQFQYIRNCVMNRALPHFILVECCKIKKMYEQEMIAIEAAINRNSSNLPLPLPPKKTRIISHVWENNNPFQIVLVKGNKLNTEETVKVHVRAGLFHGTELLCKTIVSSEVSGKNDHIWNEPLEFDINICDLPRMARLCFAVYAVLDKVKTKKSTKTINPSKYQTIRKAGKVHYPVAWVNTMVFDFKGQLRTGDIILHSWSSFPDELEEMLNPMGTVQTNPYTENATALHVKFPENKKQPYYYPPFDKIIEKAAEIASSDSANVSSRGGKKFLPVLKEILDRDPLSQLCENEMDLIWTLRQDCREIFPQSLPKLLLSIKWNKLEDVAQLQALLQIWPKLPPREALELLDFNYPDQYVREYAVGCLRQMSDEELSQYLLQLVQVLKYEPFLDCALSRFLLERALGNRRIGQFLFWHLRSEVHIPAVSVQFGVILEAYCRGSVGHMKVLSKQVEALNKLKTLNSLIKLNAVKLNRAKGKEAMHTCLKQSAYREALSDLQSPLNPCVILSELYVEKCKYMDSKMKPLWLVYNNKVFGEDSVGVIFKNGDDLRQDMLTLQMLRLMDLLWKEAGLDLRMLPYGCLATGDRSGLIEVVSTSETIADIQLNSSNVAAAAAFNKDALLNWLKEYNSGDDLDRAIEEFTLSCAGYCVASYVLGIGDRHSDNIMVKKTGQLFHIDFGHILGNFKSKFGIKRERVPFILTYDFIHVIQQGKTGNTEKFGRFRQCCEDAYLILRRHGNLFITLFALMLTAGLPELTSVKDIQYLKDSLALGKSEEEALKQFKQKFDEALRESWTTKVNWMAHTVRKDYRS

Row | SMILES | IC50 (PIK3CB (Human)) | IC50 (PIK3CD (Human)) | IC50 (PIK3CG (human))
1 | N#Cc1c(N)nc(N)nc1N1CCC[C@H]1c1nc2c(Cl)ccc(Cl)c2c(=O)n1-c1cccc(C(N)=O)c1 | 51 nM | 2 nM | 1400 nM
2 | COCCNC(=O)Nc1cccc(-n2c([C@@H]3CCCN3c3ncnc(N)c3C#N)nc3cccc(Cl)c3c2=O)c1 | 97 nM | 38 nM | 7800 nM
3 | C[C@H](Nc1ncnc(N)c1C#N)c1nc2cccc(Cl)c2c(=O)n1-c1cccc(NC(=O)Nc2cccnc2C(F)(F)F)c1 | 23 nM | 11 nM | 3900 nM
4 | N#Cc1c(N)ncnc1N1CCC[C@H]1c1nc2cccc(Cl)c2c(=O)n1-c1cccc(NC(=O)Nc2ccccn2)c1 | 420 nM | 49 nM | 7400 nM
5 | CCNC(=O)Nc1ccc(Cl)c(-n2c([C@H](C)Nc3ncnc(N)c3C#N)nc3cccc(Cl)c3c2=O)c1 | – | – | > 10000 nM
